Experimental data as given in patent US20040235799A1, “Use of a compound with a negatively charged domain of radicals for the treatment of restenosis” (priority 2001, published 2004).

System: Wistar rats
Assay: Neointima formation after balloon catheter vessel injury of the carotid artery in rats
Assay type: in vivo
Procedure: The effects on neointima formation was assessed after inducing vessel injury in rats with a balloon catheter. Neointima formation is an important part in the process of restenosis. Adult mate Wistar rats (250-260 g) were housed under standard conditions and were fed with commercial rat chow and water ad libitum. During the experiment D-myo-inositol-1,2,6-trisphosphate (IP3) was administered via subcutaneously operated osmotic minipumps with a dose level of 1 mg/kg/hr. A control group received saline solution by osmotic minipumps. The animals were anaesthetised with an intraperitoneal injection of ketamine, 100 mg/kg, (MTC Pharmaceuticals, Cambridge, Ontario, Canada) and xylazine, 10 mg/kg (Bayer lnc., Etobicoke, Ontario, Canada). Using a dissecting microscope, the left carotid artery was exposed on the ventral side of the neck via a midline incision. The bifurcation of the carotid artery was located and two ligatures were placed around the external carotid artery, which was then tied off with the distal ligature. After temporarily occluding the internal carotid artery with a vascular clamp, a small incision was made between the two ligatures placed around the external carotid artery to introduce the endothelial denudation device, an inflated […] Fogarty embolectomy catheter (Baxter Healthcare, Buckinghamshire, UK). […]

| Compound | Reduction of neointima formation (vs saline control, 1 mg/kg/hr via subcutaneous osmotic minipumps, 14 days post-operatively) | Reduction of neointima formation (vs control, procedure similar to Example 3) |
| --- | --- | --- |
| O=P(O)(O)O[C@@H]1[C@H](OP(=O)(O)O)[C@H](O)[C@@H](O)[C@H](O)[C@H]1OP(=O)(O)O [IP3, D-myo-inositol-1,2,6-trisphosphate] | 57% |  |
| O=C(Nc1ccccc1)O[C@@H]1[C@@H](OC(=O)Nc2ccccc2)[C@@H](OP(=O)(O)O)[C@@H](OP(=O)(O)O)[C@H](OP(=O)(O)O)[C@H]1OC(=O)Nc1ccccc1 [PP 11-201, D-3,4,5-tri-O-(phenylcarbamoyl) myo-inositol-1,2,6-trisphosphate] |  | 62% |
